# Values of other authors, collected in patent US20120108429A1, “SAFENED AND EFFICACIOUS WEED CONTROL PARTICLE” (The Andersons, Inc., priority 2010, published 2012).
# Test system: pentas and hemerocallis
# Settings: application of the herbicide
compound,measurement,value
C#CCN1C(=O)COc2cc(F)c(N3C(=O)C4=C(CCCC4)C3=O)cc21 [flumioxazin],effect on growth of ornamental plants,inhibited from properly growing
